Assay: In vitro binding affinity for PBR (peripheral benzodiazepine receptor) in monkey brain

With COc1ccc(OC)c(CN(C(C)=O)c2cc(F)ccc2Oc2ccccc2)c1 the Ki was 0.188 nM.
